Data: patent publication US7718808B2, “Thiazole derivatives” (Kyowa Hakko Kirin Co., Ltd., priority 2003, dated 2010)

melting point | Compound
280 to 285 °C | Cn1ccc(C(=O)Nc2nc(-c3ccco3)c(C(=O)c3ccccn3)s2)cc1=O [Compound 233, N-[4-(2-Furyl)-5-(pyridin-2-ylcarbonyl)thiazol-2-yl]-1-methyl-2-oxo-1,2-dihydropyridine-4-carboxamide]
211 to 212 °C | O=C(Nc1nc(-c2ccco2)c(C(=O)c2ccccn2)s1)c1ccc(Br)o1 [Compound 235, 5-Bromo-N-[4-(2-furyl)-5-(pyridin-2-ylcarbonyl)thiazol-2-yl]furan-2-carboxamide]
278 to 283 °C (dec.) | O=C(Nc1nc(-c2ccco2)c(C(=O)c2ccccn2)s1)c1ccc([N+](=O)[O-])o1 [Compound 236, N-[4-(2-Furyl)-5-(pyridin-2-ylcarbonyl)thiazol-2-yl]-5-nitrofuran-2-carboxamide]
174 to 176 °C | Cc1ccoc1C(=O)Nc1nc(-c2ccco2)c(C(=O)c2ccccn2)s1 [Compound 237, N-[4-(2-Furyl)-5-(pyridin-2-ylcarbonyl)thiazol-2-yl]-3-methylfuran-2-carboxamide]
187 to 189 °C | O=C(Nc1nc(-c2ccco2)c(C(=O)c2ccccn2)s1)c1ccoc1 [Compound 238, N-[4-(2-Furyl)-5-(pyridin-2-ylcarbonyl)thiazol-2-yl]furan-3-carboxamide]
183 to 186 °C | Cc1occc1C(=O)Nc1nc(-c2ccco2)c(C(=O)c2ccccn2)s1 [Compound 239, N-[4-(2-Furyl)-5-(pyridin-2-ylcarbonyl)thiazol-2-yl]-2-methylfuran-3-carboxamide]
195 to 198 °C | Cc1cc(C(=O)Nc2nc(-c3ccco3)c(C(=O)c3ccccn3)s2)c(C)o1 [Compound 240, N-[4-(2-Furyl)-5-(pyridin-2-ylcarbonyl)thiazol-2-yl]-2,5-dimethylfuran-3-carboxamide]
197 to 199 °C | O=C(Nc1nc(-c2ccco2)c(C(=O)c2ccccn2)s1)c1cccs1 [Compound 241, N-[4-(2-Furyl)-5-(pyridin-2-ylcarbonyl)thiazol-2-yl]thiophene-2-carboxamide]
223 to 230 °C | O=C(Nc1nc(-c2ccco2)c(C(=O)c2ccccn2)s1)c1ccno1 [Compound 242, N-[4-(2-Furyl)-5-(pyridin-2-ylcarbonyl)thiazol-2-yl]isoxazole-5-carboxamide]
209 to 213 °C | Cc1cc(C(=O)Nc2nc(-c3ccco3)c(C(=O)c3ccccn3)s2)no1 [Compound 243, N-[4-(2-Furyl)-5-(pyridin-2-ylcarbonyl)thiazol-2-yl]-5-methylisoxazole-3-carboxamide]
213 to 218 °C | O=C(Nc1nc(-c2ccco2)c(C(=O)c2ccccn2)s1)c1ccc2snnc2c1 [Compound 244, N-[4-(2-Furyl)-5-(pyridin-2-ylcarbonyl)thiazol-2-yl]-1,2,3-benzothiadiazole-5-carboxamide]
230 to 231 °C | Cn1nnc2ccc(C(=O)Nc3nc(-c4ccco4)c(C(=O)c4ccccn4)s3)cc21 [Compound 245, N-[4-(2-Furyl)-5-(pyridin-2-ylcarbonyl)thiazol-2-yl]-1-methyl-1H-benzotriazole-6-carboxamide]
246 to 249 °C | CC(O)c1cc2cc(C(=O)Nc3nc(-c4ccco4)c(C(=O)c4ccccn4)s3)ccc2o1 (stereo not drawn) [Compound 246, N-[4-(2-Furyl)-5-(pyridin-2-ylcarbonyl)thiazol-2-yl]-2-(1-hydroxyethyl)-1-benzofuran-5-carboxamide]
230 to 231 °C | CC(C)(O)c1cc2cc(C(=O)Nc3nc(-c4ccco4)c(C(=O)c4ccccn4)s3)ccc2o1 [Compound 247, N-[4-(2-Furyl)-5-(pyridin-2-ylcarbonyl)thiazol-2-yl]-2-(1-hydroxy-1-methylethyl)-1-benzofuran-5-carboxamide]
234 to 235 °C | O=C(Nc1nc(-c2ccco2)c(C(=O)c2ccccn2)s1)c1cnc2occc2c1 [Compound 248, N-[4-(2-Furyl)-5-(pyridin-2-ylcarbonyl)thiazol-2-yl]furo[2,3-b]pyridine-5-carboxamide]
158 to 159 °C | CCOC(=O)Nc1nc(-c2ccco2)c(C(=O)c2ccccn2)s1 [Compound 250, Ethyl N-[4-(2-furyl)-5-(pyridin-2-ylcarbonyl)thiazol-2-yl]carbamate]
152 to 153 °C | O=C(Nc1nc(-c2ccco2)c(C(=O)c2ccccn2)s1)OC1CCC1 [Compound 251, Cyclobutyl N-[4-(2-furyl)-5-(pyridin-2-ylcarbonyl)thiazol-2-yl]carbamate]
162 to 163 °C | O=C(Nc1nc(-c2ccco2)c(C(=O)c2ccccn2)s1)OC1CCCC1 [Compound 252, Cyclopentyl N-[4-(2-furyl)-5-(pyridin-2-ylcarbonyl)thiazol-2-yl]carbamate]
144 to 145 °C | O=C(Nc1nc(-c2ccco2)c(C(=O)c2ccccn2)s1)OC1CCOCC1 [Compound 253, 4-Tetrahydropyranyl N-[4-(2-furyl)-5-(pyridin-2-ylcarbonyl)thiazol-2-yl]carbamate]
222 to 225 °C | CN1CCC(OC(=O)Nc2nc(-c3ccco3)c(C(=O)c3ccccn3)s2)CC1 [Compound 254, 1-Methylpiperidin-4-yl N-[4-(2-furyl)-5-(pyridin-2-ylcarbonyl)thiazol-2-yl]carbamate]

melting point | Compound
158 to 159 °C | O=C(Nc1nc(-c2ccco2)c(C(=O)c2ccccn2)s1)OC(CF)CF [Compound 255, 2-Fluoro-1-(fluoromethyl)ethyl N-[4-(2-furyl)-5-(pyridin-2-ylcarbonyl)thiazol-2-yl]carbamate]
144 to 145 °C | O=C(c1ccccn1)c1sc(NC(=O)N2CCOCC2)nc1-c1ccco1 [Compound 256, N-[4-(2-Furyl)-5-(pyridin-2-ylcarbonyl)thiazol-2-yl]morpholine-4-carboxamide]
182 to 185 °C | O=C(c1ccccn1)c1sc(NC(=O)N2CCCCC2)nc1-c1ccco1 [Compound 257, N-[4-(2-Furyl)-5-(pyridin-2-ylcarbonyl)thiazol-2-yl]piperidine-1-carboxamide]
182 to 186 °C | CC(C)NC(=O)Nc1nc(-c2ccco2)c(C(=O)c2ccccn2)s1 [Compound 258, N-[4-(2-Furyl)-5-(pyridin-2-ylcarbonyl)thiazol-2-yl]-N′-isopropylurea]
150 to 151 °C | COCCNC(=O)Nc1nc(-c2ccco2)c(C(=O)c2ccccn2)s1 [Compound 260, N-[4-(2-Furyl)-5-(pyridin-2-ylcarbonyl)thiazol-2-yl]-N′-(2-methoxyethyl)urea]
169 to 170 °C | COCCCNC(=O)Nc1nc(-c2ccco2)c(C(=O)c2ccccn2)s1 [Compound 261, N-[4-(2-Furyl)-5-(pyridin-2-ylcarbonyl)thiazol-2-yl]-N′-(3-methoxypropyl)urea]
184 to 185 °C | O=C(CCl)Nc1nc(-c2ccco2)c(C(=O)c2ccccn2)s1 [Compound 262, 2-Chloro-N-[4-(2-furyl)-5-(pyridin-2-ylcarbonyl)thiazol-2-yl]acetamide]
170 to 171 °C | O=C(CN1CCOCC1)Nc1nc(-c2ccco2)c(C(=O)c2ccccn2)s1 [Compound 264, N-[4-(2-Furyl)-5-(pyridin-2-ylcarbonyl)thiazol-2-yl]morpholinoacetamide]
188 to 191 °C | C[C@@H]1CN(CC(=O)Nc2nc(-c3ccco3)c(C(=O)c3ccccn3)s2)C[C@H](C)O1 [Compound 265, 2-(cis-2,6-Dimethylmorpholino)-N-[4-(2-furyl)-5-(pyridin-2-ylcarbonyl)thiazol-2-yl]acetamide]
104 to 106 °C | CC1CCN(CC(=O)Nc2nc(-c3ccco3)c(C(=O)c3ccccn3)s2)CC1 [Compound 266, N-[4-(2-Furyl)-5-(pyridin-2-ylcarbonyl)thiazol-2-yl]-2-(4-methylpiperidino)acetamide]
188 to 204 °C | O=C(CN1CCC2(CC1)OCCO2)Nc1nc(-c2ccco2)c(C(=O)c2ccccn2)s1 [Compound 269, 2-(1,4-Dioxa-8-azaspiro[4.5]decan-8-yl)-N-[4-(2-furyl)-5-(pyridin-2-ylcarbonyl)thiazol-2-yl]acetamide]
214 to 220 °C (dec.) | O=C(CN1CCC(N2CCCCC2)CC1)Nc1nc(-c2ccco2)c(C(=O)c2ccccn2)s1 [Compound 270, N-[4-(2-Furyl)-5-(pyridin-2-ylcarbonyl)thiazol-2-yl]-2-(4-piperidinopiperidino)acetamide]
149 to 150 °C | O=C(CN1CCC(N2CCOCC2)CC1)Nc1nc(-c2ccco2)c(C(=O)c2ccccn2)s1 [Compound 271, N-[4-(2-Furyl)-5-(pyridin-2-ylcarbonyl)thiazol-2-yl]-2-(4-morpholinopiperidino)acetamide]
136 to 145 °C | CN1CCN(CC(=O)Nc2nc(-c3ccco3)c(C(=O)c3ccccn3)s2)CC1 [Compound 272, N-[4-(2-Furyl)-5-(pyridin-2-ylcarbonyl)thiazol-2-yl]-2-(4-methylpiperazin-1-yl)acetamide]
142 to 144 °C | CCN1CCN(CC(=O)Nc2nc(-c3ccco3)c(C(=O)c3ccccn3)s2)CC1 [Compound 273, 2-(4-Ethylpiperazin-1-yl)-N-[4-(2-furyl)-5-(pyridin-2-ylcarbonyl)thiazol-2-yl]acetamide]
154 to 155 °C | CC(C)N1CCN(CC(=O)Nc2nc(-c3ccco3)c(C(=O)c3ccccn3)s2)CC1 [Compound 274, N-[4-(2-Furyl)-5-(pyridin-2-ylcarbonyl)thiazol-2-yl]-2-(4-isopropylpiperazin-1-yl)acetamide]
170 to 171 °C | CC(=O)N1CCN(CC(=O)Nc2nc(-c3ccco3)c(C(=O)c3ccccn3)s2)CC1 [Compound 275, 2-(4-Acetylpiperazin-1-yl)-N-[4-(2-furyl)-5-(pyridin-2-ylcarbonyl)thiazol-2-yl]acetamide]
203 to 204 °C | O=C(CN1CCN(c2ccccc2)CC1)Nc1nc(-c2ccco2)c(C(=O)c2ccccn2)s1 [Compound 276, N-[4-(2-Furyl)-5-(pyridin-2-ylcarbonyl)thiazol-2-yl]-2-(4-phenylpiperazin-1-yl)acetamide]
215 to 218 °C | O=C(CN1CCN(c2ccccn2)CC1)Nc1nc(-c2ccco2)c(C(=O)c2ccccn2)s1 [Compound 277, N-[4-(2-Furyl)-5-(pyridin-2-ylcarbonyl)thiazol-2-yl]-2-[4-(2-pyridyl)piperazin-1-yl]acetamide]
